{"source": "PubChem BioAssay AID1919010", "about": "(Molecular Pharmacology Branch, DTP, NCI, 2023)", "test_system": "Hs578T complex spheroid growth, percent test/control", "assay": "Anticancer human tumor Hs578T cell line growth inhibition [AhR];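 note: luminescent viability signal as a proxy for spheroid growth; spheroids exposed to agents for one week after three days of growth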", "conditions": "for viability, T/C: stronger effect = lower value", "in_short": "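Complex tumor spheroids co-cultured with HUVEC and human MSC stroma; AhR antagonists tested in combination with standard-of-care and investigational agents. Top concentration at or near clinical Cmax (else 10 microM), half-log dilutions; growth expressed as percent test/control.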", "key": {"[1]": {"conditions": "curve of first compound, second compound 0.1 µM"}, "[2]": {"conditions": "curve of first compound, second compound 0.316 µM"}, "[3]": {"conditions": "curve of first compound, second compound 1 µM"}, "[4]": {"conditions": "curve of first compound, second compound 3.16 µM"}, "[5]": {"conditions": "curve of first compound, second compound 10 µM"}, "[6]": {"conditions": "second compound 0.1 µM, first compound 0.0316 µM"}, "[7]": {"conditions": "second compound 0.1 µM, first compound 0.1 µM"}, "[8]": {"conditions": "second compound 0.1 µM, first compound 0.316 µM"}, "[9]": {"conditions": "second compound 0.1 µM, first compound 1 µM"}, "[10]": {"conditions": "second compound 0.1 µM, first compound 3.16 µM"}, "[11]": {"conditions": "second compound 0.1 µM, first compound 10 µM"}, "[12]": {"conditions": "second compound 0.316 µM, first compound 0.0316 µM"}, "[13]": {"conditions": "second compound 0.316 µM, first compound 0.1 µM"}, "[14]": {"conditions": "second compound 0.316 µM, first compound 0.316 µM"}, "[15]": {"conditions": "second compound 0.316 µM, first compound 1 µM"}, "[16]": {"conditions": "second compound 0.316 µM, first compound 3.16 µM"}, "[17]": {"conditions": "second compound 0.316 µM, first compound 10 µM"}, "[18]": {"conditions": "second compound 1 µM, first compound 0.0316 µM"}, "[19]": {"conditions": "second compound 1 µM, first compound 0.1 µM"}, "[20]": {"conditions": "second compound 1 µM, first compound 0.316 µM"}, "[21]": {"conditions": "second compound 1 µM, first compound 1 µM"}, "[22]": {"conditions": "second compound 1 µM, first compound 3.16 µM"}, "[23]": {"conditions": "second compound 1 µM, first compound 10 µM"}, "[24]": {"conditions": "second compound 3.16 µM, first compound 0.0316 µM"}, "[25]": {"conditions": "second compound 3.16 µM, first compound 0.1 µM"}, "[26]": {"conditions": "second compound 3.16 µM, first compound 0.316 µM"}, "[27]": {"conditions": "second compound 3.16 µM, first compound 1 µM"}, "[28]": {"conditions": "second compound 3.16 µM, first compound 3.16 µM"}, "[29]": {"conditions": "second compound 3.16 µM, first compound 10 µM"}, "[30]": {"conditions": "second compound 10 µM, first compound 0.0316 µM"}, "[31]": {"conditions": "second compound 10 µM, first compound 0.1 µM"}, "[32]": {"conditions": "second compound 10 µM, first compound 0.316 µM"}, "[33]": {"conditions": "second compound 10 µM, first compound 1 µM"}, "[34]": {"conditions": "second compound 10 µM, first compound 3.16 µM"}, "[35]": {"conditions": "second compound 10 µM, first compound 10 µM"}}, "note": "“And” between values parts separate entries of the source, which are not always exact repeats. Equal values may be shown once."}
{"smiles": "COc1ccc([C@@H](O)c2cc(-c3ncnc4cc(N5CCOCC5)ccc34)c(F)cc2Cl)nn1", "note": "+ Cc1cncc(-c2nc(NCCc3c[nH]c4ccccc34)c3ncn(C(C)C)c3n2)c1", "values": [{"measurement": "IC50", "setting": "[1]", "value": 5.74, "unit": "µM"}, {"measurement": "IC50", "setting": "[2]", "value": 5.83, "unit": "µM"}, {"measurement": "IC50", "setting": "[3]", "value": 5.99, "unit": "µM"}, {"measurement": "IC50", "setting": "[4]", "value": 2.56, "unit": "µM"}, {"measurement": "IC50", "setting": "[5]", "value": "< 0.0316", "unit": "µM"}, {"measurement": "viability, T/C", "setting": "[6]", "value": 108, "unit": "%"}, {"measurement": "viability, T/C", "setting": "[7]", "value": 115, "unit": "%"}, {"measurement": "viability, T/C", "setting": "[8]", "value": 104, "unit": "%"}, {"measurement": "viability, T/C", "setting": "[9]", "value": 86, "unit": "%"}, {"measurement": "viability, T/C", "setting": "[10]", "value": 61, "unit": "%"}, {"measurement": "viability, T/C", "setting": "[11]", "value": 40.3, "unit": "%"}, {"measurement": "viability, T/C", "setting": "[12]", "value": 112, "unit": "%"}, {"measurement": "viability, T/C", "setting": "[13]", "value": 114, "unit": "%"}, {"measurement": "viability, T/C", "setting": "[14]", "value": 109, "unit": "%"}, {"measurement": "viability, T/C", "setting": "[15]", "value": 92.5, "unit": "%"}, {"measurement": "viability, T/C", "setting": "[16]", "value": 59, "unit": "%"}, {"measurement": "viability, T/C", "setting": "[17]", "value": 42.1, "unit": "%"}, {"measurement": "viability, T/C", "setting": "[18]", "value": 103, "unit": "%"}, {"measurement": "viability, T/C", "setting": "[19]", "value": 118, "unit": "%"}, {"measurement": "viability, T/C", "setting": "[20]", "value": 102, "unit": "%"}, {"measurement": "viability, T/C", "setting": "[21]", "value": 84.8, "unit": "%"}, {"measurement": "viability, T/C", "setting": "[22]", "value": 58.6, "unit": "%"}, {"measurement": "viability, T/C", "setting": "[23]", "value": 43.4, "unit": "%"}, {"measurement": "viability, T/C", "setting": "[24]", "value": 68.6, "unit": "%"}, {"measurement": "viability, T/C", "setting": "[25]", "value": 61, "unit": "%"}, {"measurement": "viability, T/C", "setting": "[26]", "value": 64.8, "unit": "%"}, {"measurement": "viability, T/C", "setting": "[27]", "value": 56.2, "unit": "%"}, {"measurement": "viability, T/C", "setting": "[28]", "value": 48.4, "unit": "%"}, {"measurement": "viability, T/C", "setting": "[29]", "value": 36.1, "unit": "%"}, {"measurement": "viability, T/C", "setting": "[30]", "value": 5, "unit": "%"}, {"measurement": "viability, T/C", "setting": "[31]", "value": 4.23, "unit": "%"}, {"measurement": "viability, T/C", "setting": "[32]", "value": 5.09, "unit": "%"}, {"measurement": "viability, T/C", "setting": "[33]", "value": 5.36, "unit": "%"}, {"measurement": "viability, T/C", "setting": "[34]", "value": 7.09, "unit": "%"}, {"measurement": "viability, T/C", "setting": "[35]", "value": 9.8, "unit": "%"}]}
{"smiles": "Nc1ncn(C2CC(O)C(CO)S2)c(=O)n1", "note": "(stereo unspecified)", "values": [{"measurement": "viability, T/C", "setting": "compound 0.000949 µM", "value": "112% and 105% and 101%"}, {"measurement": "viability, T/C", "setting": "compound 0.003 µM", "value": "100% and 106% and 101%"}, {"measurement": "viability, T/C", "setting": "compound 0.00949 µM", "value": "116% and 96% and 105%"}, {"measurement": "viability, T/C", "setting": "compound 0.03 µM", "value": "102% and 97.7% and 101%"}, {"measurement": "viability, T/C", "setting": "compound 0.0949 µM", "value": "102% and 97.4% and 104%"}, {"measurement": "viability, T/C", "setting": "compound 0.3 µM", "value": "98.1% and 90.8% and 94.5%"}, {"measurement": "IC50", "setting": "curve of compound", "value": "> 0.3", "unit": "µM"}]}
{"smiles": "COc1cc(C2c3cc4c(cc3C(OC3OC5COC(C)OC5C(O)C3O)C3COC(=O)C23)OCO4)cc(OC)c1O", "note": "(stereo unspecified) + Cc1ccccc1N=Nc1ccc(NC(=O)c2ccnn2C)c(C)c1", "values": [{"measurement": "IC50", "setting": "[1]", "value": "> 10", "unit": "µM"}, {"measurement": "IC50", "setting": "[2]", "value": "> 10", "unit": "µM"}, {"measurement": "IC50", "setting": "[3]", "value": "> 10", "unit": "µM"}, {"measurement": "IC50", "setting": "[4]", "value": 8.99, "unit": "µM"}, {"measurement": "IC50", "setting": "[5]", "value": 5.16, "unit": "µM"}, {"measurement": "viability, T/C", "setting": "[6]", "value": 97.1, "unit": "%"}, {"measurement": "viability, T/C", "setting": "[7]", "value": 96.1, "unit": "%"}, {"measurement": "viability, T/C", "setting": "[8]", "value": 77.3, "unit": "%"}, {"measurement": "viability, T/C", "setting": "[9]", "value": 72.8, "unit": "%"}, {"measurement": "viability, T/C", "setting": "[10]", "value": 79.5, "unit": "%"}, {"measurement": "viability, T/C", "setting": "[11]", "value": 57.9, "unit": "%"}, {"measurement": "viability, T/C", "setting": "[12]", "value": 101, "unit": "%"}, {"measurement": "viability, T/C", "setting": "[13]", "value": 103, "unit": "%"}, {"measurement": "viability, T/C", "setting": "[14]", "value": 88.9, "unit": "%"}, {"measurement": "viability, T/C", "setting": "[15]", "value": 83.1, "unit": "%"}, {"measurement": "viability, T/C", "setting": "[16]", "value": 72.2, "unit": "%"}, {"measurement": "viability, T/C", "setting": "[17]", "value": 68.9, "unit": "%"}, {"measurement": "viability, T/C", "setting": "[18]", "value": 92.6, "unit": "%"}, {"measurement": "viability, T/C", "setting": "[19]", "value": 86.4, "unit": "%"}, {"measurement": "viability, T/C", "setting": "[20]", "value": 77.3, "unit": "%"}, {"measurement": "viability, T/C", "setting": "[21]", "value": 73.9, "unit": "%"}, {"measurement": "viability, T/C", "setting": "[22]", "value": 66.3, "unit": "%"}, {"measurement": "viability, T/C", "setting": "[23]", "value": 63.1, "unit": "%"}, {"measurement": "viability, T/C", "setting": "[24]", "value": 81.2, "unit": "%"}, {"measurement": "viability, T/C", "setting": "[25]", "value": 78.8, "unit": "%"}, {"measurement": "viability, T/C", "setting": "[26]", "value": 76.9, "unit": "%"}, {"measurement": "viability, T/C", "setting": "[27]", "value": 73.7, "unit": "%"}, {"measurement": "viability, T/C", "setting": "[28]", "value": 68.5, "unit": "%"}, {"measurement": "viability, T/C", "setting": "[29]", "value": 48, "unit": "%"}, {"measurement": "viability, T/C", "setting": "[30]", "value": 68.6, "unit": "%"}, {"measurement": "viability, T/C", "setting": "[31]", "value": 68.1, "unit": "%"}, {"measurement": "viability, T/C", "setting": "[32]", "value": 67.6, "unit": "%"}, {"measurement": "viability, T/C", "setting": "[33]", "value": 57.6, "unit": "%"}, {"measurement": "viability, T/C", "setting": "[34]", "value": 54.4, "unit": "%"}, {"measurement": "viability, T/C", "setting": "[35]", "value": 44.9, "unit": "%"}]}
{"smiles": "Cc1ccccc1N=Nc1ccc(NC(=O)c2ccnn2C)c(C)c1", "values": [{"measurement": "viability, T/C", "setting": "compound 0.1 µM", "value": "101% [middle of 20 runs]"}, {"measurement": "viability, T/C", "setting": "compound 1 µM", "value": "102% [middle of 20 runs]"}, {"measurement": "viability, T/C", "setting": "compound 10 µM", "value": "64.6% [middle of 20 runs]"}, {"measurement": "IC50", "setting": "compound alone, run of 08/22/2022", "value": "> 10", "unit": "µM"}]}
